Compound `COCCn1cc(C(=O)NCc2ccc(Cl)cc2)c(=O)c2cc(CN(C)C[C@@H](O)c3ccco3)sc21` showed a melting point of 121 to 122 °C.
Turning to `Nc1ncc(-c2cccc(-n3cnc4cc(-c5ccco5)ccc43)c2)cn1`, the melting point lay in the range of 220 to 222 °C.
`OC1(c2cc3ccccc3s2)CCN(CCC2COc3ccccc3O2)CC1` (stereo not drawn) had a melting point of 175 to 178 °C.
Next, `O=C(Nc1cc(=O)n(-c2c(Cl)cc(C(F)(F)F)cc2Cl)[nH]1)c1ccccc1`: 288 °C.
On to `COc1ccc2c(c1)[nH]c(=O)c(=O)n2C`, for which the melting point was 332 °C.
Compound `CCOc1ccc(CCN(C(=O)O)C(=O)[C@H](C)NC(C)=O)cc1OCC` returned a melting point of 84 to 86 °C.
Next, `O=C(CC(=O)c1snc(Cl)c1Cl)c1ccc(O)cc1`: 224 to 227 °C.
Then `Nc1c(-c2ccc(-c3nnco3)cc2)nnn1-c1ccc(C(F)(F)F)cc1F`, with 185 to 186 °C; and `Nc1ccccc1C(=O)c1ccc(Br)cc1`, with 104 to 106 °C; and `Cc1[nH]c(C(=O)N2CCC(O)CC2)c(C)c1-c1nc2ccc(C(=O)c3ccccc3)cc2[nH]1`, with 288 to 290 °C.
For `CC(=S)NCC1CN(c2ccc(NC=O)c(F)c2)C(=O)O1` (stereo not drawn), the melting point lay in the range of 177 to 178 °C.
Regarding `O=[N+]([O-])c1ccc2sc(-c3cccnc3)nc2c1`, the melting point fell in the range of 196 to 198 °C.
Then `CCOC(=O)c1cc(OC)c2c(C)c(CCN(CC)CC)c(=O)oc2c1Br`, with 150 to 151 °C.
Then `CC(C)C(=O)NC1=NC(=CCC(=O)Nc2ccc(Cl)cc2)CS1`, with 112 to 114 °C.
Then `CCCCc1oc2ccccc2c1C(=O)c1ccc2c(Br)c(OC(Cc3ccccc3)C(=O)O)ccc2c1` (stereo not drawn), with 165 to 167 °C; and `CC(=O)N(O)CCOc1ccc(-c2ccc(C#N)cc2)cc1`, with 174 to 175 °C; and `COc1cc(CCCC2OC(=O)NC2=O)cc(OC)c1O` (stereo not drawn), with 155 to 156 °C.
For `O=C(Nc1ccc(Oc2ccc(Cl)cc2Cl)nc1)N1CCc2ccccc2CC1`, the melting point lay in the range of 154 to 155 °C.
In the case of `CC1(C)CCC(C)(C)c2cc(C(N)C(=O)Nc3ccc(C(=O)O)c(O)c3)ccc21` (stereo not drawn), the melting point lay within 240 to 241 °C.
Compound `COC(=O)c1ccc2[nH]c3ccccc3c2c1` displayed a melting point of 180 to 181 °C.
Next, `Fc1cc(F)c(-c2c(F)nnc(F)c2-c2ccc(Br)cc2)c(F)c1`: 132 to 133 °C; `CCOC(=O)C1=C(C)NC(=S)N(C(=O)OCC)C1c1ccccc1C(F)(F)F` (stereo not drawn): 106 to 108 °C.
As to `CN(C)c1ccc(-n2c(CC(=O)O)c(C(=O)O)c3cc(Oc4ccc(C(F)(F)F)cc4)ccc32)cc1`, the melting point was in the range of 235 to 237 °C.
Then `NCCc1ccc(Nc2ncc3c(n2)-c2ccccc2C(c2cccc(Br)c2)C3)cc1` (stereo not drawn), with 115 to 117 °C; and `COc1ccc2nn(C=Cc3ccc(-c4ccccc4)cc3)nc2c1`, with 165 to 175 °C; and `COC(=O)c1cc(OCCc2nc(-c3ccccc3)oc2C)no1`, with 90 to 91 °C.
The compound `COCCOC[C@H](CC1(C(=O)O)CCCC1)C(=O)Oc1ccc2c(c1)CCC2` gave a melting point of 111 to 113 °C.
Then `COc1cc(N)c(Cl)cc1C(=O)N[C@H]1CCN(C2CCC3(CC2)OCC(C)(C)CO3)C[C@H]1OC` (relative stereo), with 188 °C; and `COc1ccc(CN2C(=O)[C@@H](Cl)[C@H]2[C@@H]2COC(C)(C)O2)c(OC)c1`, with 140 to 142 °C.
In turn, `CCOC(=O)c1nccn1CCCc1ccc(OCc2coc(/C=C/c3ccccc3)n2)cc1` displayed a melting point of 123 to 124 °C.
Then `NC1=NC(=O)N(c2ccccc2)C1`, with 277 to 279 °C; and `CCOC(C)OC1CCC2(C)C3=C(CCC2C1(C)C)C1=CCC(C(C)CSc2ccccc2)C1(C)CC3` (stereo not drawn), with 101 to 107 °C.
In turn, `COCCc1nc2c(N)nc3c(c2n1CCOCCNC(=O)Nc1ccccc1)CCCC3` gave a melting point of 180 to 182 °C.

The melting point is the temperature of the solid-liquid transition.

For the origin of these results see a melting point compilation (Tetko et al.; mined from patent text by program, amines drawn as free bases though some values may be those of a salt).
